Test results: US11242344B2, “(4-hydroxypyrrolidin-2-yl)-heterocyclic compounds and methods of use thereof” (Genentech, Inc., priority 2017, dated 2022)

Tests used:
BRD4 [1] = target: T1, BRD4 (Homo sapiens (Human), UniProt O60885); assay: BRD4 degradation assay in EOL-1 cells, high content fluorescence imaging; type: cell-based; conditions: 4 hours; for DC50: BRD4 immunofluorescence, read-out: EOL-1 EC50
Procedure: (§1) PC3 (Steap-1) prostate cancer cells: PC3 (Steap-1) prostate cancer cells (PC3 cells overexpressing the surface protein Steap-1) were seeded on day 1 at a density of 200,000 cells/mL in 45 μl/well in cell plates in a 384 well Greiner/Perkin Elmer Cell Carrier TC Treated plate (part #6007430) in Assay Medium (RPMI, 10% FBS, 2 mM Glutamax). Cells were incubated overnight at 37° C. degrees. On day 2, compounds were serially diluted 3-fold in DMSO spanning the concentrations 10 mM to 8.6 nM, in 384 well clear polypropylene plates (Greiner Cat #781201). DMSO and 10 mM of a control PROTAC (dBET1, as described in WO 2017/024317, p. 235, structure below) (control compound) were added to designated wells. Compounds and controls were diluted 50-fold (2 μl of DMSO stock into 98 μl) into Assay Medium. 5 μl of the diluted compounds was transferred to the cell plates. The final top concentration of the test compounds in the cell plates was 20 μM. Cell plates were incubated at 37° C., for 4 hours. Fixation and permeabilization were carried out using a Biotek EL406 plate washer and dispenser as follows. Cells were fixed by addition of 15 μL of 16% paraformaldehyde (Electron Microscopy Sciences #15710-S) directly to the 50 μL cell culture medium in each well using the peristaltic pump 5 μL cassette on a Biotek EL406 (final concentration of formaldehyde was 3.7% w/v). Samples were incubated 30 minutes. Well contents were aspirated and 50 μL/well of Phosphate Buffered Saline (PBS) containing 0.5% w/v bovine serum albumen, 0.5% v/v Triton X-100 (Antibody Dilution Buffer) was added to each well. Samples were incubated for 30 minutes. Well contents were aspirated and washed 3 times with 100 μL/well of PBS.
EOL-1 cells: The BRD4 degradation assay was performed on EOL-1 cells using the same procedure as described above for PC3 (Steap-1) prostate cancer cells, except EOL-1 cells were seeded at 1,000,000 cells/mL. Following aspiration and washing of the well contents with 100 μL/well of PBS, 40 μL PBS plus 10% normal goat serum was added per well for 20 minutes at room temperature.
(§2) For both the PC3 and EOL-1 cell assays, immunofluorescence staining of BRD4 was carried out using a Biotek EL406 plate washer and dispenser as follows. The well supernatant was aspirated from the wells and 25 μL/well of rabbit mAb Anti-BRD4 [EPR5150(2)] abeam 128874 diluted 1:500 in Antibody Dilution Buffer is dispensed. Samples were incubated for 2 hours at room temperature. Samples were washed 4 times with 100 μL/well of PBS. 25 μL/well of secondary antibody solution (Goat Anti-Rabbit IgG, DyLight 488 Conjugated Highly Cross-adsorbed #35553 1:1000) diluted 1:1000 and Hoechst 33342 1 μg/ml diluted in Antibody Dilution Buffer) were dispensed into each well. 16 wells of the plate, which were designated as ‘no primary antibody” wells, received only Antibody Dilution Buffer (without anti-BRD4 antibody). Samples were incubated for 2 hours at room temperature. Samples were washed 3 times with 100 μL/well of PBS using a Biotek EL406. Quantitative fluorescence imaging of BRD4 was carried out using a Phenix (Perkin Elmer). Fluorescence images of the samples (Channel 1: Hoechst33342 (DNA stain); Channel 2: 488 nm (BRD4 stain)) were acquired. Channel 1 (DNA stain) was used to define the “Region of Interest” (ROI) nuclear region. Measurements of BRD4 average immunofluorescence intensity within the ROI (nuclear region), were made on a per cell basis and averaged over all the measured cells. Data analysis was carried out using Genedata Screener Software, with DMSO and “no primary antibody” samples being used to define the 0% and 100% changes in BRD4. The “Robust Fit” method was used to define the inflexion point of curve (EC50) and the plateau of the maximal effect (Sinf). The Sinf value reports degradation as percent change in protein level, so complete loss of the protein target is −100%. […]

BRD4 [2] = target: T1, BRD4; assay: BRD4 degradation assay in PC3 (Steap-1) prostate cancer cells, high content fluorescence imaging; type: cell-based; conditions: PC3 (Steap-1) cells, 4 hours; for DC50: BRD4 immunofluorescence, read-out: PC3 (Steap-1) EC50; for PC3 (Steap-1) Sinf (%): maximum degradation, percent change in protein level (-100% = complete loss)
Procedure: as §1, §2

| Compound | DC50 (BRD4 [1]) [nM] | DC50 (BRD4 [2]) [nM] | EOL-1 Sinf (%) (BRD4 [1]; maximum degradation, percent change in protein level (-100% = complete loss)) | PC3 (Steap-1) Sinf (%) (BRD4 [2]) |
| --- | --- | --- | --- | --- |
| Cc1ncsc1-c1ccc([C@]2(C)NC(C3C[C@@H](O)CN3C(=O)[C@@H](NC(=O)CCCCCCCCCCNC(=O)c3cc4c(cc3CS(C)(=O)=O)-c3cn(C)c(=O)c5[nH]cc(c35)CN4c3ncc(F)cc3F)C(C)(C)C)=NC2=O)cc1 (single isomer, unassigned) [Example 1005.1] | > 20000 |  |  |  |
| Cc1ncsc1-c1ccc([C@]2(C)NC(C3C[C@@H](O)CN3C(=O)C(c3cc(OCCCCCNC(=O)c4cc5c(cc4CS(C)(=O)=O)-c4cn(C)c(=O)c6[nH]cc(c46)CN5c4ncc(F)cc4F)no3)C(C)C)=NC2=O)cc1 (single isomer, unassigned) [Example 1001.1] | > 20000 | > 20000 |  |  |
| Cc1ncsc1-c1ccc([C@]2(C)NC(C3C[C@@H](O)CN3C(=O)C(c3cc(OCCCCCNC(=O)c4cc5c(cc4CS(C)(=O)=O)-c4cn(C)c(=O)c6[nH]cc(c46)CN5c4ncc(F)cc4F)no3)C(C)C)=NC2=O)cc1 (single isomer, unassigned) [Example 1001.2] | 0.865 | 3.3 | −96.4 | −97.2 |
| Cc1ncsc1-c1ccc([C@]2(C)NC(C3C[C@@H](O)CN3C(=O)C(c3cc(OCCCCCNC(=O)c4cc5c(cc4CS(C)(=O)=O)-c4cn(C)c(=O)c6[nH]cc(c46)CN5c4ncc(F)cc4F)no3)C(C)C)=NC2=O)cc1 (single isomer, unassigned) [Example 1001.3] | > 20000 | 140 |  | −29.0 |
